{"source": "patent US11311522B1", "about": "(Cavion, Inc., priority 2018, dated 2022)", "key": {"[1]": {"assay": "in vivo", "conditions": "female, rat, po"}, "[2]": {"system": "patients with essential tremor", "assay": "T-CALM: TETRAS activities of daily living subscale", "format": "in vivo, human", "conditions": "for TETRAS-ADL Score, Median (minimum, maximum) / TETRAS-ADL Score, Mean (SD): post-hoc", "from_the_text": "The sum of the individual scores provides the overall score, ranging from 0 to 48. The complete TETRAS ADL Subscale is as follows.\nRate tremor's impact on activities of daily living (0-4 scoring). • 1. Speaking • 0=Normal • 1=Slight voice tremulousness, only when “nervous”. • 2=Mild voice tremor. All words easily understood. • 3=Moderate voice tremor. Some words difficult to understand. • 4=Severe voice tremor. Most words difficult to understand. • 2. Feeding with a spoon • 0=Normal • 1=Slightly abnormal. […] Spills a little. • 3=Moderately abnormal. Spills a lot or changes strategy to complete task such as using two hands or leaning over. • 4=Severely abnormal Cannot feed with a spoon. • 3. Drinking from a glass • 0=Normal. • 1=Slightly abnormal. […] Spills a little. • 3=Moderately abnormal. Spills a lot or changes strategy to complete task such as using two hands or leaning over. • 4=Severely abnormal. Cannot drink from a glass or uses straw or sippy cup. • 4. Hygiene • 0=Normal. • 1=Slightly abnormal. […] Some difficulty but can complete task. • 3=Moderately abnormal. Unable to do most fine tasks such as putting on lipstick or shaving unless changes strategy such as using two hands or using the less affected hand. • 4=Severely abnormal. Cannot complete hygiene activities independently. • 5. Dressing • 0=Normal. • 1=Slightly abnormal. […] Able to do everything but has difficulty due to tremor. • 3=Moderately abnormal. Unable to do most dressing unless uses strategy such as using Velcro, buttoning shirt before putting it on or avoiding shoes with laces. • 4=Severely abnormal. Cannot dress independently. • 6. Pouring • 0=Normal. • 1=Slightly abnormal. […] Must be very careful to avoid spilling but may spill occasionally. • 3=Moderately abnormal. Must use two hands or uses other strategies to avoid spilling. • 4=Severely abnormal. Cannot pour. • 7. Carrying food trays, plates or similar items • 0=Normal • 1=Slightly abnormal. […] Must be very careful to avoid spilling items on food tray. • 3=Moderately abnormal. Uses strategies such as holding tightly against body to carry. • 4=Severely abnormal. Cannot carry food trays or similar items. • 8. Using Keys • 0=Normal • 1=Slightly abnormal. Tremor is present but can insert key with one hand without difficulty. • 2=Mildly abnormal. Commonly misses target but still routinely puts key in lock with one hand. • 3=Moderately abnormal. Needs to use two hands or other strategies to put key in lock. • 4=Severely abnormal. Cannot put key in lock. • 9. Writing • 0=Normal • 1=Slightly abnormal. […] Difficulty writing due to the tremor • 3=Moderately abnormal. Cannot write without using strategies such as holding the writing hand with the other hand, holding pen differently or using large pen. • 4=Severely abnormal. Cannot write. • 10. Working. If patient is retired, ask as if they were still working. If the patient is a housewife, ask the question as it relates to housework: • 0=Normal. • 1=Slightly abnormal. […] Tremor interferes with work; able to do everything, but with errors. • 3=Moderately abnormal. Unable to continue working without using strategies such as changing jobs or using special equipment. • 4=Severely abnormal. Cannot perform any job or household work. • 11. Overall disability with the most affected task (Name task, e.g. using computer mouse, writing, etc) • Task • 0=Normal. • 1=Slightly abnormal. […] Tremor interferes with task but is still able to perform task. • 3=Moderately abnormal. Can do task but must use strategies. • 4=Severely abnormal. Cannot do the task. • 12.\nAnalyses of the TETRAS-ADL was conducted using the same type of ANCOVA model as described for the TETRAS-PS, using two-sided tests at the alpha=0.05 level of significance (FIG. 2 and Table 2)."}, "[3]": {"assay": "Exploratory embryofetal development study in rabbits"}, "[4]": {"assay": "90-day oral toxicology in rats", "conditions": "both, rat, in vivo"}, "[5]": {"system": "patients with essential tremor", "assay": "T-CALM: TETRAS-PS spiral task (item 6)", "format": "in vivo, human", "experimental": "The Archimedes spiral item of the TETRAS-PS subscale (Item 6) incorporates a routine clinical assessment of functional tremor impact into the TETRAS scoring of tremor severity. […] The investigator then asks the subject to copy the spiral. Each hand is tested and scored separately. […] The tremor in the spiral is scored, not the movement of the limb.\nScores for TETRAS-PS subscale item 6 were summed for both hands and the mean change from baseline was calculated for Day 15 and Day 28 (FIG. 4 and Table 4). Statistical significance was calculated by Mann-Whitney non-parametric t-test (two tailed)."}, "[6]": {"system": "cardiovascular function", "assay": "Cardiovascular function in anesthetized vagotomized dogs, IV", "format": "in vivo, dog", "conditions": "10 mg/kg IV"}, "[7]": {"assay": "4-week oral toxicology in rats (with FOB)", "conditions": "for NOAEL at 4 weeks / AUC / Cmax: rat; for NOAEL at 4 weeks: in vivo; for AUC / Cmax: plasma, Day 28, mean (SD)"}, "[8]": {"system": "T1, Cav3", "T1 construct": "rows headed: Cav3 potency", "assay": "Cav3 potency and state dependency, summary of Cav3 antagonist pharmacological properties", "format": "cell-based"}, "[9]": {"conditions": "Day 15, patients Minimally Improved by PGIC, N=17"}, "[10]": {"conditions": "Day 28, patients Minimally Improved by CGI-I, N=15"}, "[11]": {"conditions": "Day 28, patients Minimally Improved by PGIC, N=10"}, "[12]": {"conditions": "Dutch Belted rabbit, oral gavage GD 7 through GD 20"}, "[13]": {"conditions": "Sprague-Dawley rat, 30, 300, or 2000 mg/kg/day oral gavage for 4 weeks"}}, "note": "Values joined by “and” are separate entries in the source; they are usually repeats but may differ in a detail not shown here. Equal values may be shown once.", "data": [{"smiles": "CC(C)c1ccc(CC(=O)N[C@H](C)c2ccc(OCC(F)(F)F)cn2)cc1", "note": "[CX-8998]", "values": [{"measurement": "AUC", "setting": "[1]; 10 mg/kg/day", "value": 20.7, "unit": "µM·h"}, {"measurement": "Tmax", "setting": "[1]; 10 mg/kg/day", "value": 3.4, "unit": "h"}, {"measurement": "AUC", "setting": "[1]; 100 mg/kg/day", "value": 94.6, "unit": "µM·h"}, {"measurement": "AUC", "setting": "[1]; 500 mg/kg/day", "value": 219, "unit": "µM·h"}, {"measurement": "Tmax", "setting": "[1]; 500 mg/kg/day", "value": 4.8, "unit": "h"}, {"measurement": "Change from baseline in TETRAS-ADL, LS mean", "setting": "[2]; Day 15 (8 mg BID)", "value": "−4.5±0.87 and −4.5"}, {"measurement": "TETRAS-ADL Score, Median (minimum, maximum)", "setting": "[2]; Day 15, patients Minimally Improved by CGI-I, N=19", "value": "−2.0"}, {"measurement": "TETRAS-ADL Score, Mean (SD)", "setting": "[2]; Day 15, patients Minimally Improved by CGI-I, N=19, reduction from baseline", "value": "−3.7 (4.21)"}, {"measurement": "TETRAS-ADL Score, Mean (SD)", "setting": "[2]; [9]", "value": "−3.3 (4.27)"}, {"measurement": "TETRAS-ADL Score, Median (minimum, maximum)", "setting": "[2]; [9]", "value": "−4.0"}, {"measurement": "Change from baseline in TETRAS-ADL, LS mean", "setting": "[2]; Day 28 (10 mg BID)", "value": "−4.5±1.12 and −4.5"}, {"measurement": "TETRAS-ADL Score, Mean (SD)", "setting": "[2]; [10]", "value": "−4.4 (8.10)"}, {"measurement": "TETRAS-ADL Score, Median (minimum, maximum)", "setting": "[2]; [10]", "value": "−1.0 (−24, 3)"}, {"measurement": "TETRAS-ADL Score, Mean (SD)", "setting": "[2]; [11]", "value": "−1.6 (3.84)"}, {"measurement": "TETRAS-ADL Score, Median (minimum, maximum)", "setting": "[2]; [11]", "value": "−1.0 (−7, 3)"}, {"measurement": ">5 to 10 point worsening", "setting": "[2]; TETRAS-ADL, Day 15", "value": "0 n (%)"}, {"measurement": ">10 point worsening", "setting": "[2]; TETRAS-ADL, Day 15", "value": "0 n (%)"}, {"measurement": "0 change", "setting": "[2]; TETRAS-ADL, Day 28", "value": "5 (13.5%) n (%)"}, {"measurement": ">0 to 1 point improvement", "setting": "[2]; TETRAS-ADL, Day 28", "value": "2 (5.4%) n (%)"}, {"measurement": ">0 to 1 point worsening", "setting": "[2]; TETRAS-ADL, Day 28", "value": "3 (8.1%) n (%)"}, {"measurement": ">1 to 2.5 point improvement", "setting": "[2]; TETRAS-ADL, Day 28", "value": "3 (8.1%) n (%)"}, {"measurement": ">1 to 2.5 point worsening", "setting": "[2]; TETRAS-ADL, Day 28", "value": "3 (8.1%) n (%)"}, {"measurement": ">2.5 to 5 point improvement", "setting": "[2]; TETRAS-ADL, Day 28", "value": "7 (18.9%) n (%)"}, {"measurement": ">2.5 to 5 point worsening", "setting": "[2]; TETRAS-ADL, Day 28", "value": "3 (8.1%) n (%)"}, {"measurement": ">5 to 10 point improvement", "setting": "[2]; TETRAS-ADL, Day 28", "value": "6 (16.2) n (%)"}, {"measurement": ">5 to 10 point worsening", "setting": "[2]; TETRAS-ADL, Day 28", "value": "0 n (%)"}, {"measurement": ">10 point improvement", "setting": "[2]; TETRAS-ADL, Day 28", "value": "5 (13.5%) n (%)"}, {"measurement": ">10 point worsening", "setting": "[2]; TETRAS-ADL, Day 28", "value": "0 n (%)"}, {"measurement": "Developmental toxicity", "setting": "[3]; 30, 100, or 300 mg/kg/day", "value": "No evidence of developmental toxicity"}, {"measurement": "dose at which maternal toxicity was excessive", "setting": "[3]; [12]", "value": 1000, "unit": "mg/kg/day"}, {"measurement": "dose at which maternal toxicity was observed", "setting": "[3]; [12]", "value": "≥30 mg/kg/day and was excessive at"}, {"measurement": "Doses with maternal toxicity", "setting": "[3]; rabbit, in vivo", "value": "≥ 30", "unit": "mg/kg/day"}, {"measurement": "NOAEL at 90 days", "setting": "[4]; Sprague-Dawley, po", "value": 300, "unit": "mg/kg/day"}, {"measurement": "NOAEL at 90 days", "setting": "[4]; oral", "value": 300, "unit": "mg/kg/day"}, {"measurement": "Change from baseline in TETRAS-PS spiral item, mean", "setting": "[5]; Day 15 (8 mg BID)", "value": "−0.41"}, {"measurement": "Change from baseline in TETRAS-PS spiral item, mean", "setting": "[5]; Day 28 (10 mg BID)", "value": "−0.658"}, {"measurement": "Decrease in mean arterial pressure", "setting": "[6]", "value": 15, "unit": "%"}, {"measurement": "Increase in PR interval", "setting": "[6]", "value": 7, "unit": "%"}, {"measurement": "FOB findings", "setting": "[7]; [13]", "value": "non-adverse FOB changes were also"}, {"measurement": "female reproductive organ findings (extended diestrus)", "setting": "[7]; [13]", "value": "Reversible changes"}, {"measurement": "NOEL", "setting": "[7]; both sexes", "value": "< 30", "unit": "mg/kg/day"}, {"measurement": "NOAEL at 4 weeks", "setting": "[7]; both, Sprague-Dawley, po", "value": 30, "unit": "mg/kg"}, {"measurement": "LOEL for the FOB", "setting": "[7]; female rats, Day 1", "value": 30, "unit": "mg/kg/day"}, {"measurement": "NOAEL at 4 weeks", "setting": "[7]; female, oral", "value": "< 30", "unit": "mg/kg/day"}, {"measurement": "AUC", "setting": "[7]; female, po, 300 mg/kg/day, AUC24, Female rats, 300 mg/kg/day oral gavage", "value": 438, "unit": "µM·h"}, {"measurement": "Cmax", "setting": "[7]; female, po, 300 mg/kg/day, Female rats, 300 mg/kg/day oral gavage", "value": 28.3, "unit": "µM"}, {"measurement": "Cmax", "setting": "[7]; female, po, 2000 mg/kg/day, Female rats, 2000 mg/kg/day oral gavage", "value": 33.5, "unit": "µM"}, {"measurement": "NOAEL at 4 weeks", "setting": "[7]; male, oral", "value": 30, "unit": "mg/kg/day"}, {"measurement": "AUC", "setting": "[7]; male, po, 30 mg/kg/day, AUC24, Male rats, 30 mg/kg/day oral gavage", "value": 35.1, "unit": "µM·h"}, {"measurement": "Cmax", "setting": "[7]; male, po, 300 mg/kg/day, Male rats, 300 mg/kg/day oral gavage", "value": 26.1, "unit": "µM"}, {"measurement": "AUC", "setting": "[7]; male, po, 2000 mg/kg/day, AUC24, Male rats, 2000 mg/kg/day oral gavage", "value": 467, "unit": "µM·h"}, {"measurement": "Cmax", "setting": "[7]; male, po, 2000 mg/kg/day, Male rats, 2000 mg/kg/day oral gavage", "value": 28.9, "unit": "µM"}, {"measurement": "IC50", "setting": "[8]", "value": "70 to 100", "unit": "nM"}]}]}
